US20230157950A1, “OROMUCOSAL FILM COMPOSITIONS COMPRISING EPINEPHRINE PARTICLES” (ReForm Therapeutics Ltd., priority 2021, published 2023)

Settings: acetone, ethanol, methanol, isopropyl alcohol, alkaline water-based solvents, 25° C. and 45° C.

Compound: CNC[C@H](O)c1ccc(O)c(O)c1 [Epinephrine base particles, Epinephrine base]
- time for which size and structure of epinephrine particles is maintained in solvents/dispersants: at least 6 hours
- solubility of epinephrine particles in the selected solvents/dispersants (up to 6 hours, SEM): none or very limited solubility
